Test results: ChEMBL document CHEMBL4814046, “Inhibitory effects and mechanism of antifungal action of the natural cyclic depsipeptide, aureobasidin A against Cryptococcus neoformans” (Bioorg Med Chem Lett, 2021)
≈ marks a conversion by molar mass, not a printed value.

Assays:
Format in all cases: functional
Cryptococcus neoformans [1] = assay: Fungicidal activity against Cryptococcus neoformans PFCC 93-589 by broth microdilution assay
Cryptococcus neoformans [2] = assay: Antifungal activity against Cryptococcus neoformans PFCC 93-589 assessed as increase in extracellular potassium leakage at 2 times MIC incubated up to 12 hrs measured per mg dry weight of cell by spectrophotometric method; settings: time hrs <=12
Cryptococcus neoformans [3] = assay: Antifungal activity against Cryptococcus neoformans PFCC 93-589 by broth microdilution assay
Cryptococcus neoformans [4] = assay: Antifungal activity against Cryptococcus neoformans PFCC 93-589 assessed as half minimum inhibitory concentration by broth microdilution assay

C[C@@H]1[C@H](O)[C@@H](C)/C=C/C=C/C=C/C=C/C=C/C=C/C=C/[C@H](O[C@@H]2O[C@H](C)[C@@H](O)[C@H](N)[C@@H]2O)C[C@@H]2O[C@](O)(C[C@@H](O)C[C@@H](O)[C@H](O)CC[C@@H](O)C[C@@H](O)CC(=O)O[C@H]1C)C[C@H](O)[C@H]2C(=O)O [AMPHOTERICIN B]
MFC (Cryptococcus neoformans [1]): 1 µg/mL (≈ 1.08 µM) | Activity (Cryptococcus neoformans [2]): 3.56 mM | MIC (Cryptococcus neoformans [3]): 0.25 µg/mL (≈ 0.271 µM) | MIC (Cryptococcus neoformans [4]): 0.125 µg/mL (≈ 0.135 µM)
